Results as given in patent US7115667B2, “Ophthalmic fluid” (Planned Products Pty Ltd., priority 1999, dated 2006).

Tests used:
ocular substrate [1] = test: Subject's report on a hydrogel (soft) contact lens coated with 2–3 drops of the ophthalmic fluid; assay type: in vivo
From the text: (§1) The ophthalmic fluid of the present invention is suitable for use with gas permeable (hard) contact lenses or hydrogel (soft) contact lenses. In use, 2–3 drops of the ophthalmic fluid of the present invention are placed onto the inside surface of the contact lens. The ophthalmic fluid is then distributed to cover fully and evenly the inside surface of the contact lens by rubbing the ophthalmic fluid into the lens with a fingertip or any other suitable applicator. It is envisaged that the ophthalmic fluid will be biologically sterile. The inside of a contact lens was coated with 2–3 drops of the ophthalmic fluid of the present invention and fitted to the subject in the conventional manner. The subject reported on the perceived ease of inserting the coated lens, the subject's sensual reaction to the coated lens and the resulting vision through the coated lens, in relation to hard and soft contact lenses.

ocular substrate [2] = test: Subject's report on a gas permeable (hard) contact lens coated with 2–3 drops of the ophthalmic fluid; assay type: in vivo
From the text: as §1, with “In” for “The ophthalmic fluid of the present invention is suitable for use with gas permeable (hard) contact lenses or hydrogel (soft) contact lenses. In”

SMILES	sensation upon insertion / amelioration of the normal discomfort when inserting a soft lens (ocular substrate [1])	tear production/expulsion and maceration (ocular substrate [1])	vision through the coated lens (ocular substrate [1])	subject's sensual reaction to the coated lens (comfort/irritation) (ocular substrate [2])	tear production/expulsion and maceration (ocular substrate [2])	vision through the coated lens (ocular substrate [2])	comfort once the coated lens was inserted (ocular substrate [1])	sensation/discomfort caused by the edges of the lens on the eye (ocular substrate [2])	time after which initially blurred vision cleared (ocular substrate [2])	time after which initially blurred vision cleared (ocular substrate [1]) [min]
CCCCC/C=C\C/C=C\C/C=C\C/C=C\CCCC(=O)OCC(COC(=O)CCC/C=C\C/C=C\C/C=C\C/C=C\CCCCC)OC(=O)CCC/C=C\C/C=C\C/C=C\C/C=C\CCCCC [triarachidonin, 1,2,3-tri(cis, cis, cis, cis, −5,8,11,14-eicosatetraenoyl)glycerol]	did not produce any noticeable improvement in the wearer's comfort	increased tear production upon insertion of the soft lens, but no maceration	clear vision	comfortable to wear	did not experience tear production or maceration	excessively and persistently blurred	–	–	–	–
CCCCCC/C=C\CCCCCCCC(=O)OCC(COC(=O)CCCCCCC/C=C\CCCCCC)OC(=O)CCCCCCC/C=C\CCCCCC [tripalmitolein, 1,2,3-tri(cis-9-hexadecenoyl)glycerol]	–	–	blurred	could not feel the presence of the coated lens	–	excessively blurred	comfortable	not reduced to the same extent	–	–
CCCCC/C=C\C/C=C\CCCCCCCC(=O)OCC(COC(=O)CCCCCCC/C=C\C/C=C\CCCCC)OC(=O)CCCCCCC/C=C\C/C=C\CCCCC [trilinolein, 1,2,3-tri(cis, cis-9,12octadecadienoyl)glycerol]	noticeable amelioration of the normal discomfort	no tear expulsion	immediately clear	could not feel the presence of the coated lens	no tear expulsion	initially experienced blurred vision	could not feel the presence of the coated lens	not reduced to the same extent	approximately 60 seconds	–
CC/C=C\C/C=C\C/C=C\CCCCCCCC(=O)OCC(COC(=O)CCCCCCC/C=C\C/C=C\C/C=C\CC)OC(=O)CCCCCCC/C=C\C/C=C\C/C=C\CC [trilinolenin, 1,2,3-tri(cis, cis, cis −9,12,15-octadecatrienoyl)glycerol]	–	–	initially experienced blurred vision	extreme irritation	increased tear production and maceration of the ocular substrate	blurred	comfortable to wear	–	–	2
